The supplement of paper PMC10307832

Legend:
Assay in all cases: relative viability (nuclei count vs DMSO), 5 days (fraction); higher = more cells survive
[1] = compound: C1=CC=C(C(=C1)C2=CC=C(C=C2)C3=CSC4=C3C(=C(C(=O)N4)C#N)O)O + CC(=O)c1c(C)c2cnc(Nc3ccc(N4CCNCC4)cn3)nc2n(C2CCCC2)c1=O [Palbociclib] (partner 0.5 µM)
Method in brief: (§1)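 Five library-drug doses in √10 steps were combined with a fixed anchor-drug dose, or a single drug was given alone, by pin tool to lung cancer cell lines in 1536-well plates the day after seeding. Nuclei were stained and counted after 5 days. Relative viability is the nuclei count in treated wells over that in vehicle wells, taken as the median of duplicate plates.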

[2] = compound: C1=CC=C(C(=C1)C2=CC=C(C=C2)C3=CSC4=C3C(=C(C(=O)N4)C#N)O)O + CS(=O)(=O)N1CCN(Cc2cc3nc(-c4cccc5[nH]ncc45)nc(N4CCOCC4)c3s2)CC1 [Pictilisib] (partner 1 µM)
Method in brief: as §1

[3] = compound: O=C(CCCCCCNC(=O)c1cnc(N(c2ccccc2)c2ccccc2)nc1)NO [Ricolinostat] + C[C@]1(O)C[C@@H](c2nc(-c3ccc4ccc(-c5ccccc5)nc4c3)c3c(N)nccn32)C1 [Linsitinib] (partner 1 µM)
Method in brief: as §1

[4] = compound: O=C(CCCCCCNC(=O)c1cnc(N(c2ccccc2)c2ccccc2)nc1)NO [Ricolinostat] + CC1(C)CCC(c2ccc(Cl)cc2)=C(CN2CCN(c3ccc(C(=O)NS(=O)(=O)c4ccc(N[C@H](CCN5CCOCC5)CSc5ccccc5)c(S(=O)(=O)C(F)(F)F)c4)cc3)CC2)C1 [Navitoclax] (partner 0.5 µM)
Method in brief: as §1

Cell Line | relative viability ([1]; first compound 0.08 µM) | relative viability ([1]; first compound 0.253 µM) | relative viability ([1]; first compound 0.8 µM) | relative viability ([1]; first compound 2.53 µM) | relative viability ([1]; first compound 8 µM) | relative viability ([2]; first compound 0.08 µM) | relative viability ([2]; first compound 0.253 µM) | relative viability ([2]; first compound 0.8 µM) | relative viability ([2]; first compound 2.53 µM) | relative viability ([2]; first compound 8 µM) | relative viability ([3]; first compound 0.08 µM) | relative viability ([3]; first compound 0.253 µM) | relative viability ([3]; first compound 0.8 µM) | relative viability ([3]; first compound 2.53 µM) | relative viability ([4]; first compound 0.08 µM) | relative viability ([4]; first compound 0.253 µM) | relative viability ([4]; first compound 0.8 µM) | relative viability ([4]; first compound 2.53 µM)
PC-14 | 0.496 | 0.56 | 0.537 | 0.574 | 0.34 | 0.604 | 0.674 | 0.658 | 0.797 | 0.52 | 0.928 | 0.897 | 0.907 | 0.763 | 0.968 | 0.947 | 1.05 | 0.962
HCC-366 | – | 0.371 | 0.357 | 0.509 | 0.395 | 0.196 | 0.154 | 0.0996 | 0.174 | 0.164 | 0.454 | 0.67 | 0.478 | 0.454 | 0.831 | 0.957 | 1.06 | 0.978
NCI-H2126 | 0.377 | 0.347 | 0.337 | 0.333 | 0.394 | 0.455 | 0.498 | 0.478 | 0.515 | 0.503 | 0.539 | 0.724 | 0.7 | 0.627 | 0.666 | 0.807 | 0.836 | 0.679
NCI-H2023 | 0.334 | 0.35 | 0.324 | 0.41 | 0.376 | 0.185 | 0.215 | 0.263 | 0.204 | 0.22 | 0.612 | 0.614 | 0.627 | 0.625 | 0.849 | 1.01 | 0.995 | 0.906
SK-LU-1 | 0.35 | 0.37 | 0.378 | 0.389 | 0.355 | 0.426 | 0.532 | 0.57 | 0.61 | 0.508 | 1.09 | 0.96 | 1.18 | 0.76 | 0.863 | 0.816 | 0.642 | 0.502
NCI-H2347 | 0.46 | 0.429 | 0.361 | 0.442 | 0.423 | 0.624 | 0.609 | 0.496 | 0.626 | 0.454 | 0.832 | 0.92 | 0.876 | 0.906 | 0.623 | 0.739 | 0.73 | 0.671
HCC-15 | 0.786 | 0.867 | 0.766 | 0.897 | 0.617 | 0.777 | 0.767 | 0.734 | 0.74 | 0.777 | 0.847 | 0.866 | 0.938 | 0.834 | 0.649 | 0.75 | 0.767 | 0.616
HCC-44 | 1.08 | 1.05 | 0.995 | 0.979 | 0.964 | 0.549 | 0.717 | 0.601 | 0.556 | 0.605 | 0.575 | 0.682 | 0.589 | 0.545 | 0.861 | 1.04 | 0.985 | 0.93
NCI-H1355 | 0.445 | 0.413 | 0.437 | 0.412 | 0.378 | 0.478 | 0.541 | 0.416 | 0.325 | 0.447 | – | 0.79 | 0.735 | 0.716 | – | 0.916 | 0.887 | 0.747
NCI-H2405 | 0.476 | – | 0.516 | 0.513 | 0.531 | 0.379 | 0.439 | 0.443 | 0.436 | 0.295 | 0.515 | 0.93 | 1.05 | 1.1 | 0.577 | 0.935 | 0.975 | 0.77
EKVX | 0.312 | 0.365 | 0.512 | 0.793 | 0.334 | 0.457 | 0.482 | 0.376 | 0.425 | 0.367 | – | 1.01 | 0.921 | 1.15 | – | 0.805 | 0.842 | 1.02
NCI-H1993 | 0.702 | 0.674 | 0.716 | 0.631 | 0.607 | 0.901 | 1.01 | 0.762 | 0.902 | 0.828 | 0.696 | 0.772 | 0.665 | 0.778 | 0.798 | 1.11 | 1.01 | 1.04
HOP-62 | 0.545 | 0.536 | 0.497 | 0.532 | 0.382 | 0.774 | 0.773 | 0.673 | 0.837 | 0.434 | 1.03 | 0.991 | 0.943 | 0.644 | 0.887 | 1.01 | 1.03 | 1.08
SK-MES-1 | 0.296 | 0.305 | 0.306 | 0.305 | 0.315 | 0.33 | 0.368 | 0.354 | 0.284 | 0.307 | 1.01 | 1.01 | 1.12 | 1.02 | 1.07 | 1.22 | 1.21 | 1.23
NCI-H1755 | 0.447 | 0.482 | 0.418 | 0.42 | 0.48 | 0.279 | 0.59 | 0.381 | 0.396 | 0.383 | 0.901 | – | 0.994 | 0.966 | 0.864 | – | 0.981 | 0.912
NCI-H838 | 0.22 | 0.231 | 0.193 | 0.201 | 0.186 | 0.329 | 0.49 | 0.367 | 0.367 | 0.403 | 0.944 | 1.01 | 1.1 | 0.9 | 0.97 | 1.13 | 1.19 | 0.967
NCI-H322M | 0.461 | 0.468 | 0.467 | 0.483 | 0.49 | 0.511 | 0.495 | 0.494 | 0.477 | 0.499 | – | 0.865 | 1.01 | 0.968 | – | 1.2 | 1.27 | 1.08
NCI-H441 | 0.208 | 0.21 | 0.184 | 0.275 | 0.21 | 0.437 | 0.596 | 0.593 | 0.546 | 0.452 | 0.478 | 0.62 | 0.624 | 0.396 | 0.77 | 0.411 | 0.798 | 0.357
